In patent US20040192686A1, “Benzoazine mono-N-oxides and benzoazine 1,4 dioxides and compositions therefrom for the therapeutic use in cancer treatments” (Auckland Uniservices Limited, priority 2003, published 2004):
Structures can show the parent of a compound that is named as a salt.

SMILES | melting point
COc1cc2nc(NCCN(C)C)n[n+]([O-])c2cc1C [Compound 114, N^1-(6-Methoxy-7-methyl-1-oxido-1,2,4-benzotriazin-3-yl)-N^2,N^2-dimethyl-1,2-ethanediamine] | 167 to 169 °C
Cc1cccc2nc(N)n[n+]([O-])c12 [Compound 3b, 8-Methyl-1,2,4-benzotriazin-3-amine 1-oxide] | 265 °C (dec.)
CN(C)CCN(C)c1nc2ccccc2[n+]([O-])n1 (as salt: hydrochloride) [Compound 38, N^1,N^1,N^2-Trimethyl-N^2-(1-oxido-1,2,4-benzotriazin-3-yl)-1,2-ethanediamine] | 220 to 223 °C
CCCCSc1ccc2nc(N)n[n+]([O-])c2c1 [Compound 3o, 7-(Butylsulfanyl)-1,2,4-benzotriazin-3-amine 1-oxide] | 215 to 217 °C
CSc1ccc2c(c1)nc(N)n[n+]2[O-] [Compound 3w, 6-(Methylsulfanyl)-1,2,4-benzotriazin-3-amine 1-oxide] | 248 to 250 °C
COCCOc1ccc2nc(N)n[n+]([O-])c2c1 [Compound 14, 7-(2-Methoxyethoxy)-1,2,4-benzotriazin-3-amine 1-oxide] | 201 to 203 °C
COc1ccc2nc(NCCN3CCOCC3)n[n+]([O-])c2c1 [Compound 94, 7-Methoxy-N-[2-(4-morpholinyl)ethyl]-1,2,4-benzotriazin-3-amine 1-oxide] | 208 to 212 °C
Cc1cc2nc(NCCN(C)C)n[n+]([O-])c2cc1C [Compound 106, N^1-(6,7-Dimethyl-1-oxido-1,2,4-benzotriazin-3-yl)-N^2,N^2-dimethyl-1,2-ethanediamine] | 175 to 178 °C
COc1ccc2c(c1)nc(NCCN1CCOCC1)n[n+]2[O-] [Compound 86, 6-Methoxy-N-[2-(4-morpholinyl)ethyl]-1,2,4-benzotriazin-3-amine 1-oxide] | 186 to 188 °C
CC(C)c1ccc2c(c1)nc(NCCN1CCOCC1)n[n+]2[O-] [Compound 149, 6-Isopropyl-N-[2-(4-morpholinyl)ethyl]-1,2,4-benzotriazin-3-amine 1-Oxide] | 145 to 147 °C
CSc1cccc2nc(N)n[n+]([O-])c12 (hydrate or solvate) [Compound 3f, 8-(Methylsulfanyl)-1,2,4-benzotriazin-3-amine 1-oxide] | 271 to 275 °C
CC(C)(C)c1ccc2c(c1)nc(NCCN1CCOCC1)n[n+]2[O-] [Compound 157, 6-tert-Butyl-N-[2-(4-morpholinyl)ethyl]-1,2,4-benzotriazin-3-amine 1-Oxide] | 132 to 134 °C
COCCNC(=O)Cc1ccc(Nc2nc3ccccc3[n+]([O-])n2)cc1 [Compound 53, 2-{4-[(1-Oxido-1,2,4-benzotriazin-3-yl)amino]phenyl}-N-(2-methoxyethyl)acetamide] | 216 to 218 °C
Nc1nc2cccc(F)c2[n+]([O-])n1 [Compound 3c, 8-Fluoro-1,2,4-benzotriazin-3-amine 1-oxide] | 270 to 278 °C (dec.)
N#CCCCNc1nc2ccccc2[n+]([O-])n1 [Compound 27, 4-[(1-Oxido-1,2,4-benzotriazin-3-yl)amino]butanenitrile] | 184 to 187 °C
CCc1nc2ccc(OCCOC)cc2[n+]([O-])n1 [Compound 97, 3-Ethyl-7-(2-methoxyethoxy)-1,2,4-benzotriazine 1-oxid] | 95 to 97 °C
[O-][n+]1nc(-c2ccccc2)nc2ccccc21 [Compound 57, 3-Phenyl-1,2,4-benzotriazine 1-oxide] | 125 to 127 °C
CCCN(CCC)CCNc1nc2cc(C)ccc2[n+]([O-])n1 [Compound 140, N^1-(6-Methyl-1-oxido-1,2,4-benzotriazin-3-yl)-N^2,N^2-dipropyl-1,2-ethanediamine] | 88 to 90 °C
Nc1nc2ccccc2n[n+]1[O-] [Compound 126, 1,2,4-Benzotriazin-3-amine 2-oxide] | 175 to 180 °C
COc1cc2nc(Cl)n[n+]([O-])c2cc1C [Compound 113, 3-Chloro-6-methoxy-7-methyl-1,2,4-benzotriazine 1-oxide] | 180 to 182 °C
COc1ccc2nc(NCCN3CCCCC3)n[n+]([O-])c2c1 [Compound 93, 7-Methoxy-N-[2-(1-piperidinyl)ethyl]-1,2,4-benzotriazin-3-amine 1-oxide] | 162 to 165 °C
CCN(CC)CCNc1nc2cccc(C)c2[n+]([O-])n1 [Compound 162, N^1,N^1-Diethyl-N^2-(8-methyl-1-oxido-1,2,4-benzotriazin-3-yl)-1,2-ethanediamine] | 89 to 91 °C
Nc1nc2cccc(C(F)(F)F)c2[n+]([O-])n1 [Compound 3e, 8-Trifluoromethyl-1,2,4-benzotriazin-3-amine 1-oxid] | 280 to 286 °C (dec.)
Cc1cc2nc(Cl)n[n+]([O-])c2cc1C [Compound 104, 3-Chloro-6,7-dimethyl-1-oxido-1,2,4-benzotriazine] | 148 to 149 °C
CSc1ccc2nc(N)n[n+]([O-])c2c1 [Compound 3n, 7-(Methylsulfanyl)-1,2,4-benzotriazin-3-amine 1-oxide] | 245 to 247 °C

SMILES | melting point
Cc1cc2nc(NCCN3CCOCC3)n[n+]([O-])c2cc1C [Compound 167, 6,7-Dimethyl-N-[2-(4-morpholinyl)ethyl]-1,2,4-benzotriazi n-3-amine 1-Oxide] | 211 to 213 °C
Nc1nc2ccc([N+](=O)[O-])cc2[n+]([O-])n1 [Compound 3p, 7-Nitro-1,2,4-benzotriazin-3-amine 1-oxide] | 269 to 272 °C
Cc1cccc2nc(NCCN3C(C)CCCC3C)n[n+]([O-])c12 (stereo not shown) [Compound 164, N-[2-(2,6-Dimethyl-1-piperidinyl)ethyl]-8-methyl-1,2,4-benzotriazin-3-amine 1-Oxide] | 169 to 171 °C
CC(C)c1ccc2c(c1)nc(NCCN(C)C)n[n+]2[O-] [Compound 147, N^1-(6-Isopropyl-1-oxido-1,2,4-benzotriazin-3-yl)-N^2,N^2-dimethyl-1,2-ethanediamine] | 87 to 89 °C
COCCc1cccc(Nc2nc3ccccc3[n+]([O-])n2)c1 [Compound 49, N-[3-(2-Methoxyethyl)phenyl]-1,2,4-benzotriazin-3-amine 1-oxide] | 122 to 124 °C
[O-][n+]1nc(CCCO)nc2ccccc21 [Compound 66, 3-(3-Hydroxypropyl)-1,2,4-benzotriazine 1-oxid] | 99 to 100 °C
COc1cccc2c1nc(N)n[n+]2[O-] [Compound 3y, 5-Methoxy-1,2,4-benzotriazin-3-amine 1-oxide] | 267 °C (dec.)
[O-][n+]1nc(CC2CO2)nc2ccccc21 (stereo not shown) [Compound 62, 3-(2-Oxiranylmethyl)-1,2,4-benzotriazine 1-oxide] | 105 to 107 °C
CCCCSc1ccc2c(c1)nc(N)n[n+]2[O-] [Compound 3x, 6-(Butylsulfanyl)-1,2,4-benzotriazin-3-amine 1-oxide] | 180 to 182 °C
Nc1nc2cc(C(F)(F)F)ccc2[n+]([O-])n1 [Compound 3v, 6-Trifluoromethyl-1,2,4-benzotriazin-3-amine 1-oxide] | 280 to 284 °C (dec.)
COc1cc2c(cc1C)nc(NCCN1CCCCC1)n[n+]2[O-] [Compound 119, 7-Methoxy-6-methyl-N-[2-(1-piperidinyl)ethyl]-1,2,4-benzotriazin-3-amine 1-oxide] | 195 to 197 °C
CCCN(CCC)CCNc1nc2cccc(C)c2[n+]([O-])n1 [Compound 165, N^1-(8-Methyl-1-oxido-1,2,4-benzotriazin-3-yl)-N^2,N^2-dipropyl-1,2-ethanediamine] | 91 to 93 °C
Cc1ccc2c(c1)nc(N)n[n+]2[O-] [Compound 3r, 6-Methyl-1,2,4-benzotriazin-3-amine 1-oxide] | 263 °C (dec.)
CCN(CC)CCNc1nc2cc(C)c(C)cc2[n+]([O-])n1 [Compound 166, N^1-(6,7-Dimethyl-1-oxido-1,2,4-benzotriazin-3-yl)-N^2,N^2-diethyl-1,2-ethanediamine] | 130 to 132 °C
O=C(O)Cc1ccc(Nc2nc3ccccc3[n+]([O-])n2)cc1 [Compound 52, {4-[(1-Oxido-1,2,4-benzotriazin-3-yl)amino]phenyl}acetic acid] | 243 to 245 °C
CCN(CC)CCNc1nc2cc(Cl)ccc2[n+]([O-])n1 [Compound 134, N^1-(6-Chloro-1-oxido-1,2,4-benzotriazin-3-yl)-N^2,N^2-diethyl-1,2-ethanediamine] | 128 to 130 °C
Cl.[O-][n+]1nc(CCN2CCOCC2)nc2ccccc21 | 213 to 215 °C
CC(C)c1ccc2c(c1)nc(NCCN1CCCCC1)n[n+]2[O-] [Compound 150, 6-Isopropyl-N-[2-(1-piperidinyl)ethyl]-1,2,4-benzotriazin-3-amine 1-Oxide] | 124 to 127 °C
O=C(NCCOCCNc1nc2ccccc2[n+]([O-])n1)c1cccc2cc3ccccc3nc12 [Compound 121, N-(2-{2-[(1-Oxido-1,2,4-benzotriazin-3-yl)amino]ethoxy}ethyl)-4-acridinecarboxamide] | 178 to 182 °C
Nc1nc2ccc(F)cc2[n+]([O-])n1 [Compound 3k, 7-Fluoro-1,2,4-benzotriazin-3-amin 1-oxide] | 280 to 290 °C (dec.)
Nc1nc2c([N+](=O)[O-])cccc2[n+]([O-])n1 [Compound 3ac, 5-Nitro-1,2,4-benzotriazin-3-amine-1-oxide] | 269 to 272 °C
COCCOc1ccc2nc(Cl)n[n+]([O-])c2c1 [Compound 96, 3-Chloro-7-(2-methoxyethoxy)-1,2,4-benzotriazine 1-oxide] | 121 to 125 °C
COCCNc1nc2ccccc2[n+]([O-])c1C#N [Compound 123, 3-[(2-Methoxyethyl)amino]-2-quinoxalinecarbonitrile 1-oxide] | 124 to 126 °C
[O-][n+]1nc(NCCN2CCCC2)nc2ccccc21 [Compound 40, N-[2-(1-Pyrrolidinyl)ethyl]-1,2,4-benzotriazin-3-amin 1-oxid] | 141 to 143 °C
